Test systems include MDA-N; Hs-578T; RXF 393; SK-MEL-28; SK-MEL-2; KM12; K562; CCRF-CEM; 786-0; MDA-MB-231; NCI-H23; HT-29; NCI/ADR-RES; OVCAR-5; SF-539; TK-10; SN12C; COLO 205; NCI-H460; OVCAR-8.
Holding throughout (assay): NCI tumour cell line growth inhibition, 48 h

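Following 48 hours of exposure in 96-well plates, responses at five concentrations were used to interpolate endpoints linearly. At the GI50, growth is halved.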 The source made the active and inactive calls. No stated cut-off is given here; in the data, active = GI50 up to about 1.1 µM and inactive = higher.

In the case of `CN(C)c1ccc(/C=C/c2cc[n+](C)c3ccccc23)cc1`, the GI50 is 2.27 µM (inactive) in the test with MDA-N; 2.74 µM (inactive) in the test on Hs-578T; 7.1 µM (inactive) in the test with RXF 393; 5.32 µM (inactive) in the test with SK-MEL-28; 2.27 µM (inactive) in the test with SK-MEL-2; 2.51 µM (inactive) in the test with KM12. In addition, the GI50 in the test on K562 is 0.418 µM (active); in the test on CCRF-CEM, 1.9 µM (inactive); with 786-0, 4.27 µM (inactive); in the test with MDA-MB-231 it was 5.94 µM (inactive); in the test with NCI-H23 it was 2.11 µM (inactive); with HT-29 it was 2.04 µM (inactive). For the same compound, the GI50 with NCI/ADR-RES was > 100 µM (inactive); in the test with OVCAR-5 it was 6.43 µM (inactive); in the test with SF-539 it was 5.56 µM (inactive); in the test on TK-10 it was 3.71 µM (inactive); with SN12C, 3.44 µM (inactive); with COLO 205 it was 1.36 µM (inactive). In addition, the GI50 is 2.9 µM (inactive) in the test with NCI-H460 and 1.53 µM (inactive) in the test on OVCAR-8.
Consider `OC(c1cc2ccccc2o1)c1cc2ccccc2s1` (stereo not given), for which the GI50 in the test with MDA-N is 3.94 µM (inactive); with Hs-578T, 9.53 µM (inactive); in the test on RXF 393, > 10 µM (inactive); in the test on SK-MEL-28 it was > 10 µM (inactive); in the test on SK-MEL-2, > 10 µM (inactive); in the test on KM12, 7.23 µM (inactive). Also, the GI50 in the test on K562 is 4.57 µM (inactive); in the test with CCRF-CEM it was > 10 µM (inactive); in the test on 786-0 it was > 10 µM (inactive); in the test with MDA-MB-231, > 10 µM (inactive); in the test with NCI-H23, > 10 µM (inactive); with HT-29 it was > 10 µM (inactive). The GI50 in the test with NCI/ADR-RES, with OVCAR-5, in the test with SF-539, in the test on TK-10, in the test with SN12C and with COLO 205 was > 10 µM (inactive) each time. For the same compound, the GI50 in the test on NCI-H460 and in the test on OVCAR-8 was > 10 µM (inactive) throughout.
With `CC1(C)CCCCCCCCCC(C)(CCCCCCCCCCCCO)C1=O` (stereo not given), the GI50 with MDA-N was 18.6 µM (inactive); in the test on Hs-578T it was 19.7 µM (inactive); in the test with RXF 393 it was 18.7 µM (inactive); in the test on SK-MEL-28 it was 18.2 µM (inactive); in the test on SK-MEL-2, 17.1 µM (inactive); in the test on KM12 it was 17.1 µM (inactive). For the same compound, the GI50 is 20 µM (inactive) in the test with K562; 17.4 µM (inactive) with CCRF-CEM; 18.6 µM (inactive) in the test on 786-0; 15.3 µM (inactive) in the test on MDA-MB-231; 18.7 µM (inactive) with NCI-H23; 16.9 µM (inactive) in the test on HT-29. Further, the GI50 in the test on NCI/ADR-RES is 18.5 µM (inactive); in the test on OVCAR-5, 18.5 µM (inactive); with SF-539, 16.6 µM (inactive); in the test with TK-10 it was 17.7 µM (inactive); in the test on SN12C it was 17.4 µM (inactive); in the test with COLO 205 it was 28.6 µM (inactive). The GI50 was 18.3 µM (inactive) in the test with NCI-H460 and 14.5 µM (inactive) in the test on OVCAR-8.
For `O=C(CCCn1ccnc1[N+](=O)[O-])NCCn1cncc1[N+](=O)[O-]`, the GI50 in the test with MDA-N, in the test with Hs-578T, in the test on RXF 393, in the test on SK-MEL-28, in the test with SK-MEL-2 and with KM12 was > 100 µM (inactive) each time. Further, the GI50 with K562, in the test on CCRF-CEM, with 786-0, in the test with MDA-MB-231, in the test with NCI-H23 and in the test on HT-29 was > 100 µM (inactive) throughout. Besides, the GI50 with NCI/ADR-RES, in the test with OVCAR-5, with SF-539, in the test with TK-10, in the test on SN12C and with COLO 205 was > 100 µM (inactive) throughout. In addition, the GI50 in the test with NCI-H460 and with OVCAR-8 was > 100 µM (inactive) in each case.

For the origin of these results see ChEMBL document CHEMBL1201862, “PubChem BioAssay data set” (2004).
